The assay addresses GABA-A receptors. The experiment in a line: GABA-A Agonist binding assay (NovaScreen), [3H]-GABA displacement. Details: species or system bovine. The settings on record: converted from μg/ml; read-out: IC50 for paeoniflorin converted to molarity. As for the experimental part:
These GABA-A Agonist assays were conducted by NovaScreen Biosciences Corporation (Hanover, Md.) and are described in Falch E., et al., 1986. […] 47(3): 898-903 and Enna S. J., et al., 1977.
In particular, the GABA-A Agonist binding assays use bovine cerebellar membranes as the source of GABA-A receptors. GABA-A, radio labeled with tritium (^3H), is used as both the reference compound and positive control.
The bovine cerebellar membranes are exposed to both [^3H]-GABA and extracts of the desired test substance. In this instance, the bovine cerebellar membranes were exposed to: six extracts of white peony root at concentrations of 0.01, 0.03, 0.1, 0.3, 1, 3, and 10 μg/ml. The GABA-A Agonist assay measures how much radio labeled GABA-A binds to the GABA-A receptors present in the bovine cerebellar membranes.
The results of the GABA-A Agonist binding assays are shown in FIGS. 19-24 and are expressed below in Table I as IC50 in μg/ml.
In particular, the GABA-A Agonist binding assays use bovine cerebellar membranes as the source of GABA-A receptors. GABA-A, radio labeled with tritium (^3H), is used as both the reference compound and positive control. The bovine cerebellar membranes are exposed to both [^3H]-GABA and extracts of the desired test substance. […]

The term IC50 denotes the concentration that gives 50% inhibition.

`C[C@@]12C[C@@]3(O)O[C@@H](O1)[C@]1(COC(=O)c4ccccc4)[C@H]3C[C@@]12O[C@@H]1O[C@H](CO)[C@@H](O)[C@H](O)[C@H]1O` [paeoniflorin]: the IC50 is ~625 nM.

The values above are taken from US20060275520A1, “White peony extract for improving the duration and quality of sleep” (Access Business Group International LLC, priority 2005, published 2006).
